{"source": "paper PMC7036753", "about": "“Lipidated Analogs of the LL-37-Derived Peptide Fragment KR12—Structural Analysis, Surface-Active Properties and Antimicrobial Activity” (International Journal of Molecular Sciences, 2020)", "key": {"[1]": {"tested_on": "S. aureus ATCC 25923 biofilm", "format": "cell-based, Staphylococcus aureus", "conditions": "S. aureus ATCC 25923 biofilm, 24 h"}, "[2]": {"tested_on": "S. aureus ATCC 9144 biofilm", "format": "cell-based, Staphylococcus aureus", "conditions": "S. aureus ATCC 9144 biofilm, 24 h"}, "[3]": {"tested_on": "S. aureus ATCC 6538 biofilm", "format": "cell-based, Staphylococcus aureus", "conditions": "S. aureus ATCC 6538 biofilm, 24 h"}, "[4]": {"tested_on": "S. aureus ATCC 33591 (MRSA) biofilm", "format": "cell-based, Staphylococcus aureus", "conditions": "S. aureus ATCC 33591 biofilm, 24 h"}, "[5]": {"tested_on": "S. aureus ATCC 12598 biofilm", "format": "cell-based, Staphylococcus aureus", "conditions": "S. aureus ATCC 12598 biofilm, 24 h"}, "[6]": {"tested_on": "human keratinocytes (HaCaT)", "format": "cell-based", "conditions": "HaCaT, MTT, 24 h"}}, "note": "Peptide text beside a SMILES is read from it. * marks the point of attachment. Bz = O=C(c1ccccc1)*", "data": [{"molecule": "CC[C@H](C)[C@H](NC(=O)[C@H](CCCNC(=N)N)NC(=O)[C@H](CCC(N)=O)NC(=O)[C@@H](NC(=O)[C@@H](NC(=O)[C@H](CCCNC(=N)N)NC(=O)[C@H](CCCCN)NC(=O)c1ccccc1)[C@@H](C)CC)C(C)C)C(=O)N[C@@H](CCCCN)C(=O)N[C@@H](CC(=O)O)C(=O)N[C@@H](Cc1ccccc1)C(=O)N[C@@H](CC(C)C)C(=O)N[C@@H](CCCNC(=N)N)C(N)=O", "note": "[VIII, Benzoic acid-KR12-NH2] (Bz-KRIVQRIKDFLR-NH2)", "values": [{"measurement": "MBEC", "setting": "[1]", "result": 64, "unit": "µg/mL"}, {"measurement": "MBEC", "setting": "[2]", "result": 16, "unit": "µg/mL"}, {"measurement": "MBEC", "setting": "[3]", "result": 32, "unit": "µg/mL"}, {"measurement": "MBEC", "setting": "[4]", "result": 32, "unit": "µg/mL"}, {"measurement": "MBEC", "setting": "[5]", "result": 16, "unit": "µg/mL"}, {"measurement": "IC50", "setting": "[6]", "result": 40.50, "unit": "µg/mL"}]}]}
